Test results taken from patent US6951856B2, “Arylethene-sulfonamides” (Actelion Pharmaceuticals Ltd., priority 2000, dated 2005).
Read-outs that look alike come from different tables or passages of the source.

Columns and labels:
ETA receptors = target: T1, ETA receptors (Rattus norvegicus, UniProt P26684); experiment: Inhibition of endothelin-1-induced contractions on isolated rat aortic rings; format: cell-based
T1 construct: The thoracic aorta or trachea were excised, dissected and cut in 3-5 mm rings; from tissue; host or cells: thoracic aorta rings of adult Wistar rats, endothelium removed
T1 sequence (P26684 21-426): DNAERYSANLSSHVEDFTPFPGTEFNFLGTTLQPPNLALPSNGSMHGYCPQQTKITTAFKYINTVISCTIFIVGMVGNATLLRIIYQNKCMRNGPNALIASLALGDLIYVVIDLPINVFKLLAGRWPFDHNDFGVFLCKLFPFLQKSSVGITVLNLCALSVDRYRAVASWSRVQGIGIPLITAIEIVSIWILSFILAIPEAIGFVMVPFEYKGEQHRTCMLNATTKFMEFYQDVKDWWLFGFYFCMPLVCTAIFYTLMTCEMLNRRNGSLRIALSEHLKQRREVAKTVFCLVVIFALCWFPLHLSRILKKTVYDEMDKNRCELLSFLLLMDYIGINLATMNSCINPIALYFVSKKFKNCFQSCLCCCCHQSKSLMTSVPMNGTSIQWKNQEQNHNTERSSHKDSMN
Method: (§1) 2) Inhibition of Endothelin-Induced Contractions on Isolated Rat Aortic Rings (ETA Receptors) and Rat Tracheal Rings (ETB Receptors):
(§2) Adult Wistar rats were anesthetized and exsanguinated. The thoracic aorta or trachea were excised, dissected and cut in 3-5 mm rings. The endothelium/epithelium was removed by gentle rubbing of the intimal surface. Each ring was suspended in a 10 ml isolated organ bath filled with Krebs-Henseleit solution (in mM; NaCl 115, KCl 4.7, MgSO4 1.2, KH2PO4 1.5, NaHCO3 25, CaCl2 2.5, glucose 10) kept at 37° and gassed with 95% O2 and 5% CO2. The rings were connected to force transducers and isometric tension was recorded (EMKA Technologies SA, Paris, France). The rings were stretched to a resting tension of 3 g (aorta) or 2 g (trachea). […] The functional inhibitory potency of the test compound was assessed by calculating the concentration ratio, i.e. the shift to the right of the EC50 induced by different concentrations of test compound. EC50 is the concentration of endothelin needed to get a half-maximal contraction, pA2 is the negative logarithm of the antagonist concentration which induces a two-fold shift in the EC50 value.

ETB receptors = target: T2, ETB receptors (Rattus norvegicus, UniProt P21451); experiment: Inhibition of sarafotoxin S6c-induced contractions on isolated rat tracheal rings; format: cell-based
T2 construct: The thoracic aorta or trachea were excised, dissected and cut in 3-5 mm rings; from tissue; host or cells: tracheal rings of adult Wistar rats, epithelium removed
T2 sequence (P21451 27-442): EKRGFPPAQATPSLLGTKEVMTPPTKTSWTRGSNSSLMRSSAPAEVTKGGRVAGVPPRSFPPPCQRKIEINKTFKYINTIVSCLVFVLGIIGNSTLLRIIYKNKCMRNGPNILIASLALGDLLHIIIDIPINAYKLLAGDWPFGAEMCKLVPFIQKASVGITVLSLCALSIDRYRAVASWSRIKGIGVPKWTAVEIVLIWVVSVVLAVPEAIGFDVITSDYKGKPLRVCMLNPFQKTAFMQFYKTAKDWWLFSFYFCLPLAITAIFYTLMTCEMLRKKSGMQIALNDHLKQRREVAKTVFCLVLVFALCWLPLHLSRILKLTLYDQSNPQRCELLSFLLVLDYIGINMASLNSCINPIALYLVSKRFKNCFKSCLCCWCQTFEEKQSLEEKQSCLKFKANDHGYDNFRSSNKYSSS
Method: as §1, §2

[1] = target: T3, human recombinant ETB receptors (Homo sapiens, UniProt P24530); experiment: Inhibition of [125I]ET-1 binding to membranes from CHO cells carrying human ETB receptors
T3 construct: expressed in transfected cells; host or cells: CHO cells (microsomal membranes)
T3 sequence (P24530 27-442): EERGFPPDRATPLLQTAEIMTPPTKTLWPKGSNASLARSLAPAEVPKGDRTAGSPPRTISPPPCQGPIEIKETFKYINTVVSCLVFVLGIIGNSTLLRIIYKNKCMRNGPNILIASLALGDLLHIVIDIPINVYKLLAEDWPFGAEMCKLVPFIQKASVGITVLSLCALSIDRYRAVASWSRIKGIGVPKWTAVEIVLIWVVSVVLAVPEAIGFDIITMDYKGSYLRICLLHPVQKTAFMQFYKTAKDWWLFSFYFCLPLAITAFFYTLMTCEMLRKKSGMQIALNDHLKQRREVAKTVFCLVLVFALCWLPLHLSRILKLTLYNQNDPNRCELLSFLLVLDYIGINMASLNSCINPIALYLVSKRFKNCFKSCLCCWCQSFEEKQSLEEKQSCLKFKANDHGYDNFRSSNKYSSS
Method: (§3) 1) Inhibition of Endothelin Binding to Membranes from CHO Cells Carrying Human ET Receptors
(§4) For competition binding studies, membranes of CHO cells expressing human recombinant ETA or ETB receptors were used. Microsomal membranes from recombinant CHO cells were prepared and the binding assay made as previously described (Breu V., et al, FEBS Lett 1993; 334:210).
(§5) The assay was performed in 200 uL 50 mM Tris/HCl buffer, pH 7.4, including 25 mM MnCl2, 1 mM EDTA and 0.5% (w/v) BSA in polypropylene microtiter plates. […] After 2 h, the membranes were filtered on filterplates containing GF/C filters (Unifilterplates from Canberra Packard S.A. Zürich, Switzerland). To each well, 50 uL of scintillation cocktail was added (MicroScint 20, Canberra Packard S.A. Zürich, Switzerland) and the filter plates counted in a microplate counter (TopCount, Canberra Packard S.A. Zürich, Switzerland).
(§6) All the test compounds were dissolved, diluted and added in DMSO.

[2] = target: T4, human recombinant ETA receptors (Homo sapiens, UniProt P25101); experiment: Inhibition of [125I]ET-1 binding to membranes from CHO cells carrying human ETA receptors; details: CHO cell membranes, 8 pM [125I]ET-1, 2 h at 20° C.
T4 construct: expressed in transfected cells; host or cells: CHO cells (microsomal membranes)
T4 sequence (P25101 21-427): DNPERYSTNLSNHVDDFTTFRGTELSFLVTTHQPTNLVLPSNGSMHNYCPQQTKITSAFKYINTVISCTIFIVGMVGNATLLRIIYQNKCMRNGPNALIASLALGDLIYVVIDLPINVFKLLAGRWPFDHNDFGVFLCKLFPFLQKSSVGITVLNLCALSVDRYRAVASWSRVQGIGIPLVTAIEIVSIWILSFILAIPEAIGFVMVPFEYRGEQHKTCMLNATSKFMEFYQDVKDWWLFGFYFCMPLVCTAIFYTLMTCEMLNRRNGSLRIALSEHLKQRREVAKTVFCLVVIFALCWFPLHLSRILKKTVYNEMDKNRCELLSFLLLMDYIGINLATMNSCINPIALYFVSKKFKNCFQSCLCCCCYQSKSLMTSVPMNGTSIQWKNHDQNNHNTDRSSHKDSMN
Method: as §3, §4, §5, §6

[3] = read-out: pA2 value ETA (converted)

Work on COc1ccccc1Oc1c(NS(=O)(=O)/C=C/c2ccccc2)ncnc1OCCOc1ncc(Br)cn1 [Example 211] yielded a Kb (ETA receptors; [3]) of 24.5 nM, a Kb (ETB receptors) of 224 nM and an IC50 [1] of 2640 nM. The IC50 [2] was 38 nM.
COc1ccccc1Oc1c(NS(=O)(=O)/C=C/c2ccccc2)nc(N2CCOCC2)nc1OCCOc1ncccn1 [Example 194] showed a Kb (ETA receptors; [3]) of 31.6 nM, a Kb (ETB receptors) of 316 nM and an IC50 [1] of 627 nM. For the same compound, the IC50 [2] was 7.8 nM.
Cc1ccc(-c2c(NS(=O)(=O)/C=C/c3ccccc3)ncnc2OCCOc2ncc(Br)cn2)cc1 [Example 1, 2-phenyl-ethenesulfonic acid {6-[2-(5-bromo-pyrimidin-2-yloxy)-ethoxy]-5-p-tolyl-pyrimidin-4-yl}-amide] gave a Kb (ETA receptors) of 1.86 nM, a Kb (ETB receptors) of 81.3 nM and an IC50 [1] of 569 nM. For the same compound, the IC50 [2] was 1.8 nM.
COc1ccccc1Oc1c(NS(=O)(=O)/C=C/c2ccccc2)nc(N2CCOCC2)nc1OCCOc1ncc(Cl)cn1 [Example 195] gave a Kb (ETA receptors; [3]) of 9.12 nM, an IC50 [1] of 293 nM and an IC50 [2] of 6 nM.
Compound O=S(=O)(/C=C/c1ccccc1)Nc1ncnc(OCCOc2ncc(Br)cn2)c1-c1ccc(Cl)cc1 [Example 43] has a Kb (ETA receptors; [3]) of 0.851 nM, an IC50 [1] of 408 nM and an IC50 [2] of 4.6 nM.
Cc1ccc(-c2c(NS(=O)(=O)/C=C/c3ccccc3)nc(-c3ncccn3)nc2OCCOc2ncc(Br)cn2)cc1 [Example 140] showed a Kb (ETA receptors; [3]) of 1.86 nM, an IC50 [1] of 1090 nM and an IC50 [2] of 12.5 nM.
In the case of Cc1ccc(-c2c(NS(=O)(=O)/C=C/c3cccs3)ncnc2OCCOc2ncc(Br)cn2)cc1 [Example 67], the Kb (ETA receptors; [3]) is reported as 0.316 nM, the IC50 [1] is reported as 752 nM and the IC50 [2] is reported as 7.8 nM.
With Cc1ccc(-c2c(NS(=O)(=O)/C=C/c3ccccc3)nc(-c3ccncc3)nc2OCCOc2ncc(Br)cn2)cc1 [Example 80] the Kb (ETA receptors; [3]) was 4.47 nM, the Kb (ETB receptors) was 6170 nM and the IC50 [1] was 2570 nM. It also gave an IC50 [2] of 19.7 nM.
Compound COc1ccccc1Oc1c(NS(=O)(=O)/C=C/c2ccccc2)nc(N2CCOCC2)nc1OCCOc1ncc(F)cn1 [Example 196] has a Kb (ETA receptors; [3]) of 20.9 nM, an IC50 [1] of 427 nM and an IC50 [2] of 4.7 nM.
For COc1ccccc1Oc1c(NS(=O)(=O)/C=C/c2cccs2)nc(-c2ccncc2)nc1OCCOc1ncccn1 [Example 174], the Kb (ETA receptors; [3]) was 13.2 nM, the IC50 [1] was 1010 nM and the IC50 [2] was 6.7 nM.
COc1ccccc1Oc1c(NS(=O)(=O)/C=C/c2ccccc2)nc(N2CCOCC2)nc1OCCOc1ncc(Br)cn1 [Example 193] gave a Kb (ETA receptors; [3]) of 2.51 nM, a Kb (ETB receptors) of 126 nM and an IC50 [1] of 537 nM. The IC50 [2] was 2.6 nM.
O=S(=O)(/C=C/c1ccccc1)Nc1ncnc(OCCOc2ncc(Br)cn2)c1-c1ccc(Br)cc1 [Example 85] was tested, and the Kb (ETA receptors; [3]) was 0.851 nM, the IC50 [1] was 238 nM and the IC50 [2] was 3.8 nM.
Work on O=S(=O)(/C=C/c1ccccc1)Nc1ncnc(OCCOc2ncc(Br)cn2)c1-c1ccccc1 [Example 92] yielded a Kb (ETA receptors; [3]) of 12.3 nM, an IC50 [1] of 7470 nM and an IC50 [2] of 20 nM.
For COc1ccccc1Oc1c(NS(=O)(=O)/C=C/c2cccs2)nc(-c2ccncc2)nc1OCCOc1ncc(Br)cn1 [Example 173], the Kb (ETA receptors; [3]) was 1.48 nM, the Kb (ETB receptors) was 79.4 nM and the IC50 [1] was 976 nM. For the same compound, the IC50 [2] was 4.2 nM.
Cc1ccc(-c2c(NS(=O)(=O)/C=C/c3ccccc3)ncnc2OCCOc2ncc(F)cn2)cc1 [Example 15] was tested, and the Kb (ETA receptors; [3]) was 26.9 nM, the IC50 [1] was 2130 nM and the IC50 [2] was 18 nM.
COc1ccccc1Oc1c(NS(=O)(=O)/C=C/c2ccccc2)nc(-c2ncccn2)nc1OCCOc1ncccn1 [Example 152] was tested, and the Kb (ETA receptors; [3]) was 20.4 nM, the Kb (ETB receptors) was 912 nM and the IC50 [1] was 4820 nM. For the same compound, the IC50 [2] was 43.3 nM.
